Here are results for seven molecules from patent publication US10670605B2, “Cysteine reactive probes and uses thereof” (The Scripps Research Institute, priority 2015, dated 2020).

What all share (test): Competitive isoTOP-ABPP in situ (fragment-treated cells)
Holding throughout (format): cell-based
Settings in all cases: 200 μM, insitu

Test [1] concerns the target T1, cysteines in MDA-MB-231 and Ramos cells (Homo sapiens, UniProt P42166).
T1 sequence (P42166 1-694): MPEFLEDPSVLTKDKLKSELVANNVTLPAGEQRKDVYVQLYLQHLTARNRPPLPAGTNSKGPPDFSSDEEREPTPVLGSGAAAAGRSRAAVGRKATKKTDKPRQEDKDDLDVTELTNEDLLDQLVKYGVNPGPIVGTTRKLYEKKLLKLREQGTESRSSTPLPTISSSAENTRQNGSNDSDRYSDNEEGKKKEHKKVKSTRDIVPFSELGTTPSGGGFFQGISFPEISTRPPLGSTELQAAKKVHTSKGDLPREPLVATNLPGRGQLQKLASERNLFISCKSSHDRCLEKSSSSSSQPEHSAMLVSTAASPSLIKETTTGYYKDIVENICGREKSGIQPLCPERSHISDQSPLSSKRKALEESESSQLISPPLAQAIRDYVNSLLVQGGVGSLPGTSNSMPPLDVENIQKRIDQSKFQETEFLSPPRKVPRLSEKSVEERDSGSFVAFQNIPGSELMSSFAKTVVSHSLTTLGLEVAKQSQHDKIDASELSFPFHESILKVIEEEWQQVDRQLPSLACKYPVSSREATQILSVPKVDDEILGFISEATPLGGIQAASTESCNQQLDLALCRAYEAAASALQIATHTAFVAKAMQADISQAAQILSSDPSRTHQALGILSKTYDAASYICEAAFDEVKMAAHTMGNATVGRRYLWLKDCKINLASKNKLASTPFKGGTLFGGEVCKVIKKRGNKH

For test [2], the target named is cysteines in MDA-MB-231 and Ramos cells (Homo sapiens, UniProt Q9NYL2).
cysteines in MDA-MB-231 and Ramos cells (Homo sapiens, UniProt Q9NYL2), sequence (Q9NYL2 whole entry): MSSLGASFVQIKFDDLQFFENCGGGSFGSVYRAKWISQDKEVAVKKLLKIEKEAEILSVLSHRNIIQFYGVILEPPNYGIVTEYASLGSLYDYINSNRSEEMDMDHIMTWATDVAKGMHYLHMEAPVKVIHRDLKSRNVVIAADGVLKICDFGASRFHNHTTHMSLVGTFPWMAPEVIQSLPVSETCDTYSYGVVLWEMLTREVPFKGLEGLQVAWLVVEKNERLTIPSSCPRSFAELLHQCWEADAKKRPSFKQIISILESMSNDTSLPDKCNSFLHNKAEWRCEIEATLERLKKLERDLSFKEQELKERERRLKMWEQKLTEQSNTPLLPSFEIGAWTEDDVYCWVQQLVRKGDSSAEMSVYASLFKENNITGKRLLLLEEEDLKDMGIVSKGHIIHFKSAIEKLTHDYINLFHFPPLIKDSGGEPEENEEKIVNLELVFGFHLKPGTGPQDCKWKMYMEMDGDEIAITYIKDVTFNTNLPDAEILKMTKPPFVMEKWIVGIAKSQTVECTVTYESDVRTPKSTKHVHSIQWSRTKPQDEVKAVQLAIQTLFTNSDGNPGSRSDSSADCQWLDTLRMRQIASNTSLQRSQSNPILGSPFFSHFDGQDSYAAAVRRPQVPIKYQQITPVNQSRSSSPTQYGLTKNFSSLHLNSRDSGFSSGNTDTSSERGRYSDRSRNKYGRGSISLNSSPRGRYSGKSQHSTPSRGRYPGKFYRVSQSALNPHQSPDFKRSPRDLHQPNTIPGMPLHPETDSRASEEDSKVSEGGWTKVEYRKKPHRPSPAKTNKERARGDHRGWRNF
For test [3], the target named is T2, cysteines in MDA-MB-231 and Ramos cells (Homo sapiens, UniProt Q15233).
T2 sequence (Q15233 1-471): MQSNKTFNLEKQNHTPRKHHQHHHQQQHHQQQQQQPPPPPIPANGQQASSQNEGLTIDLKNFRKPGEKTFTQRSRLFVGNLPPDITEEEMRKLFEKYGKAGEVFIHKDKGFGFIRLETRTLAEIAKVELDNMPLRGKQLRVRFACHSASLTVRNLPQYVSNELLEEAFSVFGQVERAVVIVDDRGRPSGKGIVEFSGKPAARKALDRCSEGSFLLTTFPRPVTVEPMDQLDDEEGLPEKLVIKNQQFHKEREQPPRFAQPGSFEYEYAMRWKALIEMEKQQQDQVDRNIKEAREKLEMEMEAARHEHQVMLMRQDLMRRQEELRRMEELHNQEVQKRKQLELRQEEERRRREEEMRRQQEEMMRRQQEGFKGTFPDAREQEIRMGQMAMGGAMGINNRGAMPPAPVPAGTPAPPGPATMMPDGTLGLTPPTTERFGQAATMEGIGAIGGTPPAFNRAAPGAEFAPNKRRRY

Test [4] addresses T3, cysteines in MDA-MB-231 and Ramos cells (Homo sapiens, UniProt O95571).
T3 sequence (O95571 8-254): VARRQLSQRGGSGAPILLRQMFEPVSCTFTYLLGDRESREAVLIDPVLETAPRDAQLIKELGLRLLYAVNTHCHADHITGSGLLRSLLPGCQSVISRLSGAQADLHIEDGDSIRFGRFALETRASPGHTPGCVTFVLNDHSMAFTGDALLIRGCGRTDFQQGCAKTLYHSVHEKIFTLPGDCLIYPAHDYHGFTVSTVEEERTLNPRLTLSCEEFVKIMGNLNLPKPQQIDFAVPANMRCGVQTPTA

Test [5] has as its target T4, cysteines in MDA-MB-231 and Ramos cells (Homo sapiens, UniProt Q99497).
T4 sequence (Q99497 1-189): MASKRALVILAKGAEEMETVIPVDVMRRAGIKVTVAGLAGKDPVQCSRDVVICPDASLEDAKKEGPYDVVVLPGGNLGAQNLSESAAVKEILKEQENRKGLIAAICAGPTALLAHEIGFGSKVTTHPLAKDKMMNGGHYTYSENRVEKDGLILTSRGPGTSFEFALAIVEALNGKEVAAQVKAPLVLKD

The target in test [6] is T5, cysteines in MDA-MB-231 and Ramos cells (Homo sapiens, UniProt Q9UKF6).
T5 sequence (Q9UKF6 1-684): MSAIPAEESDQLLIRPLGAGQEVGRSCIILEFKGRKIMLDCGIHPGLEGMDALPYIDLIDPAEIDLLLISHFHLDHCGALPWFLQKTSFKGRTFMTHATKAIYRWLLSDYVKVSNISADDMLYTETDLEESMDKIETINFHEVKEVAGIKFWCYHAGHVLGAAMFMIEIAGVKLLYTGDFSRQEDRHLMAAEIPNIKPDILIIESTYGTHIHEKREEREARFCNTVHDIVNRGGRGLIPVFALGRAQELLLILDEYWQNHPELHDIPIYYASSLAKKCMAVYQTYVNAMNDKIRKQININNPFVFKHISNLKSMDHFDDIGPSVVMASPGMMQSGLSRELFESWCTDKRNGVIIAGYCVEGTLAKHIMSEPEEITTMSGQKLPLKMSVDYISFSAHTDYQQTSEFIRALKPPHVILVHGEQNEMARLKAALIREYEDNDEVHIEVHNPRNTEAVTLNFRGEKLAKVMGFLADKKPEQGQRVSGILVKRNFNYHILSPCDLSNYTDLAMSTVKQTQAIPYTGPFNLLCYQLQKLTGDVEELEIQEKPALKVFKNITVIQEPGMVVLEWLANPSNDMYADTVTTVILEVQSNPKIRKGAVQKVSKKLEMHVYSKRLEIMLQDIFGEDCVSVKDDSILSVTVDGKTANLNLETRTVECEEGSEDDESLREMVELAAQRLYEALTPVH

On to `O=C(CCl)NCCc1c[nH]c2ccccc12` [compound 13], for which, in test [1] (231), the “isoTOP-ABPP ratio P42166_C341” value is given as 1.3; the “isoTOP-ABPP ratio P42166_C561” value is recorded as 1.2; the “isoTOP-ABPP ratio, cysteine P42166_C629” value was determined as 1.0; the “isoTOP-ABPP ratio, cysteine P42166_C684” value is recorded as 1.2. Further, in test [1] (ramos), the “isoTOP-ABPP ratio P42166_C341” value is given as 1.4 and the “isoTOP-ABPP ratio P42166_C561” value came out at 1.0. In addition, the “isoTOP-ABPP ratio Q9NYL2_C22” value in test [2] (231) is 1.3. For the same molecule, the “isoTOP-ABPP ratio Q15233_C145” value in test [3] (231) stood at 1.0. Further, the “isoTOP-ABPP ratio Q15233_C145” value in test [3] (ramos) was determined as 1.1. Further, the “isoTOP-ABPP ratio O95571_C170” value in test [4] (231) stood at 1.2. For the same molecule, in test [4] (ramos), the “isoTOP-ABPP ratio O95571_C170” value is listed as 1.9. Also, the “isoTOP-ABPP ratio Q99497_C106” value in test [5] (ramos) is 3.3. In test [6] (ramos), the “isoTOP-ABPP ratio Q9UKF6_C498” value worked out at 1.4.

Consider `O=C(CCl)NC12CC3CC(CC(C3)C1)C2` [compound 21], for which, in test [1] (231), the “isoTOP-ABPP ratio P42166_C341” value is 1.7; the “isoTOP-ABPP ratio P42166_C561” value was determined as 1.4; the “isoTOP-ABPP ratio, cysteine P42166_C518” value is given as 1.4; the “isoTOP-ABPP ratio, cysteine P42166_C629” value amounted to 1.6. In test [4] (231), the “isoTOP-ABPP ratio O95571_C170” value amounted to 1.7. In test [6] (231), the “isoTOP-ABPP ratio Q9UKF6_C498” value was determined as 1.4.

In the case of `COc1ccccc1OCCNC(=O)CCl` [compound 28], the “isoTOP-ABPP ratio P42166_C561” value in test [1] (231) came to 1.1. The “isoTOP-ABPP ratio Q15233_C145” value in test [3] (231) stood at 1.1. Moreover, the “isoTOP-ABPP ratio Q99497_C106” value in test [5] (231) was 1.0.

As to `O=C(CCl)N1CCN(CC(=O)N2CCOCC2)CC1` [compound 29], in test [1] (ramos), the “isoTOP-ABPP ratio P42166_C561” value amounted to 0.9 and the “isoTOP-ABPP ratio P42166_C629” value is listed as 1.6. In test [2] (ramos), the “isoTOP-ABPP ratio Q9NYL2_C22” value worked out at 1.2. For the same molecule, in test [4] (ramos), the “isoTOP-ABPP ratio O95571_C170” value is on record as 1.5. Further, the “isoTOP-ABPP ratio Q9UKF6_C498” value in test [6] (ramos) was 2.3.

For `C=CC(=O)N(Cc1cccnc1)c1cc(C(F)(F)F)cc(C(F)(F)F)c1` [compound 31], the “isoTOP-ABPP ratio P42166_C561” value in test [1] (231) is 1.3; in test [1] (ramos) it was 2.5. For the same molecule, the “isoTOP-ABPP ratio P42166_C341” value in test [1] (ramos) is given as 2.0. In test [1] (ramos), the “isoTOP-ABPP ratio P42166_C684” value came out at 3.3. For the same molecule, the “isoTOP-ABPP ratio Q15233_C145” value worked out at 0.7 in test [3] (231) and 0.8 in test [3] (ramos). Also, the “isoTOP-ABPP ratio Q99497_C106” value in test [5] (231) is 0.8; in test [5] (ramos) it was 1.0.

Regarding `C=CC(=O)Nc1cc(F)c(N2CCN(C(=O)OC(C)(C)C)CC2)c(F)c1` [compound 38], in test [1] (231), the “isoTOP-ABPP ratio P42166_C518” value is reported as 2.2, the “isoTOP-ABPP ratio P42166_C561” value is listed as 20.0 and the “isoTOP-ABPP ratio P42166_C684” value is 3.0. Moreover, in test [3] (231), the “isoTOP-ABPP ratio Q15233_C145” value amounted to 0.9. In test [5] (231), the “isoTOP-ABPP ratio Q99497_C106” value turned out to be 1.1.

On to `O=C(CCl)Nc1cccc2ncccc12` [compound 51], for which, in test [1] (231), the “isoTOP-ABPP ratio P42166_C341” value is reported as 1.2, the “isoTOP-ABPP ratio P42166_C561” value is 1.3 and the “isoTOP-ABPP ratio P42166_C684” value amounted to 1.2. Besides, the “isoTOP-ABPP ratio Q15233_C145” value in test [3] (231) worked out at 1.6. Moreover, the “isoTOP-ABPP ratio Q99497_C106” value in test [5] (231) turned out to be 1.4.
